Experimental data from ChEMBL document CHEMBL5325500, “Mannich Base PIP-199 Is a Chemically Unstable Pan-Assay Interference Compound” (J Med Chem, 2023).
Calls of active or inactive are those of the source. The rule behind the calls is not given here.

What was measured:
Homo sapiens [1] = species on record: Homo sapiens; experiment: Binding affinity to biotinylated RMI1/RMI2 (unknown origin) at 12.5 to 200 uM associated for 60 secs and dissociated for 60 secs by SPR analysis; details: dose 12.5-200 µM, time 120.0 sec
Homo sapiens [2] = species on record: Homo sapiens; experiment: Displacement of N-terminal TAMRA-labeled SRDLFSVTFDLGFCSPDSDD-NH2 tracer from RMI1/RMI2 (unknown origin) in 50 mM Tris buffer pH 8.8 at 125 uM incubated for 1 hr by fluorescence polarization assay
[3] = Stability in potassium phosphate buffer at pH 6 to 8 assessed as drug degradation at 250 uM measured after 1.5 hrs by 1H-NMR analysis; format: physicochemical; details: pH 6, 1.5 h
[4] = Stability of compound in H2O/MeCN with 0.1% formic acid assessed as elimination of piperazine at 250 uM measured after 1.5 hrs by LC-MS analysis; format: physicochemical
[5] = Stability of compound in H2O/MeCN with 0.1% formic acid assessed as formation of 2-phenyl-3-(pyridin-2-ylmethylene)-3H-indole 1-oxide by measuring retention time at 250 uM measured after 1.5 hrs by LC-MS analysis; format: physicochemical
[6] = Stability of compound in H2O/MeCN with 0.1% formic acid assessed as formation of 2-phenyl-3-(pyridin-2-ylmethylene)indoline-1,2-diol by measuring retention time at 250 uM measured after 1.5 hrs by LC-MS analysis; format: physicochemical
[7] = Stability of compound in H2O/MeCN with 0.1% formic acid assessed as isomer of nitrone formation by measuring retention time at 250 uM measured after 1.5 hrs by LC-MS analysis; format: physicochemical
[8] = Stability of compound in phosphate buffer at pH 7 to 8 assessed as formation of 2-phenyl-3-(pyridin-2-ylmethylene)-3H-indole 1-oxide at 50 uM measured every 0.1 secs for 3 mins by UV-Vis spectroscopy; format: physicochemical; details: pH 7, 2.778e-05 h, time 0.1 sec
[9] = Stability of compound in 50 mM phosphate buffer at pH 6 to 8 assessed as drug decomposition at 250 uM measured after 1.5 hrs by NMR analysis; format: physicochemical; details: pH 6, 1.5 h
[10] = Stability of compound in 10 mM Tris buffer at pH 8.8 assessed as drug decomposition at 250 uM measured after 1.5 hrs by NMR analysis; format: physicochemical; details: pH 8.8, 1.5 h
[11] = Stability of compound in 10 to 50 mM HEPES buffer at pH 7.4 assessed as drug decomposition at 250 uM measured after 1.5 hrs by NMR analysis; format: physicochemical; details: pH 7.4, 1.5 h
[12] = Stability of compound in 50 mM Tris buffer at pH 8.8 assessed as drug decomposition at 250 uM measured after 1.5 hrs by NMR analysis; format: physicochemical; details: pH 8.8, 1.5 h
[13] = Stability of compound in 10 to 50 mM NH4Cl buffer at pH 8.8 assessed as drug decomposition at 250 uM measured after 1.5 hrs by NMR analysis; format: physicochemical; details: pH 8.8, 1.5 h
Homo sapiens [14] = species on record: Homo sapiens; experiment: Displacement of N-terminal TAMRA-labeled SRDLFSVTFDLGFCSPDSDD-NH2 tracer from RMI1/RMI2 (unknown origin) in 10 mM Tris buffer pH 8.8 at 125 uM incubated for 1 hr by fluorescence polarization assay
[15] = Solubility of compound assessed as precipitation at >250 uM; format: physicochemical
[16] = Stability in phosphate buffer at pH 7 to 8 assessed as drug degradation at 250 uM measured after 1.5 hrs by 1H-NMR analysis; format: physicochemical; details: pH 7, 1.5 h
[17] = Stability in phosphate buffer at pH 6 assessed as drug degradation at 250 uM measured after 1.5 hrs by 1H-NMR analysis; format: physicochemical; details: read-out: Drug degradation
[18] = Stability of compound in H2O/MeCN with 0.1% formic acid assessed as (2-phenyl-1H-indol-3-yl)(pyridin-2-yl)methanol formation by measuring retention time at 250 uM measured after 1.5 hrs by LC-MS analysis; format: physicochemical
[19] = Stability of compound in H2O/MeCN with 0.1% formic acid assessed as retention time of intact compound at 250 uM measured after 1.5 hrs by LC-MS analysis; format: physicochemical

CCOC(=O)N1CCN(C(c2ccccn2)c2c(C)[nH]c3ccccc23)CC1 (stereo not drawn)
Activity (Homo sapiens [1]): inactive
Activity (Homo sapiens [2]): inactive

CCOC(=O)N1CCN(C(c2ccccn2)c2c(-c3ccccc3)n(O)c3ccccc23)CC1 (stereo not drawn)
Stability [3]: Unstable
Stability [4]: Unstable
Retention_time [5]: 11.4 min
Retention_time [6]: 8.2 min
Retention_time [7]: 9.5 min
Stability [8]: Unstable
Stability [9]: Unstable
Stability [10]: Unstable
Stability [11]: Unstable
Stability [12]: Stable
Stability [13]: Unstable
Activity (Homo sapiens [1]): inactive
Activity (Homo sapiens [14]): inactive
Activity (Homo sapiens [2]): inactive
solubility [15]: Insoluble

CCOC(=O)N1CCN(C(c2ccccn2)c2ccc3ccccc3c2O)CC1 (stereo not drawn)
Activity (Homo sapiens [1]): inactive
Activity (Homo sapiens [2]): inactive

CCOC(=O)N1CCN(C(c2ccccn2)c2c(-c3ccccc3)[nH]c3ccccc23)CC1 (stereo not drawn)
Stability [16]: Stable
degraded at 1.5 h, 250 µM [17]: 50%
Retention_time [18]: 7.3 min
Activity (Homo sapiens [1]): inactive
Retention_time [19]: 8.7 min
Activity (Homo sapiens [2]): inactive

CCOC(=O)N1CCN(C(c2ccccc2)c2c(-c3ccccc3)[nH]c3ccccc23)CC1 (stereo not drawn)
Activity (Homo sapiens [2]): inactive

c1ccc(-c2[nH]c3ccccc3c2C(c2ccccn2)N2CCCCC2)cc1 (stereo not drawn)
Activity (Homo sapiens [1]): inactive
Activity (Homo sapiens [2]): inactive
